Assay: mn = molality of the nth substance listed, in mol/kg
Conditions: 75 kPa, Liquid; for viscosity: Capillary tube (Ostwald / Ubbelohde) method; for speed of sound: Frequency=3 MHz, Single path-length method; for mass density: Vibrating tube method

NCCC(=O)O [3-aminopropanoic acid] + O
Conditions	mass density [kg/m3]	speed of sound [m/s]	viscosity [mPa·s]
288.15 K, m1 = 0.1393	1003.45	1475.7	1.179
288.15 K, m1 = 0.2789	1007.7	1484.8	1.214
288.15 K, m1 = 0.4194	1011.88	1493.8	1.252
288.15 K, m1 = 0.5603	1015.98	1502.7	1.291
288.15 K, m1 = 0.7021	1020	1511.6	1.332
288.15 K, m1 = 0.8451	1023.96	1520.4	1.372
288.15 K, m1 = 0.9881	1027.81	1529	1.414
288.15 K, m1 = 1.132	1031.61	1537.5	1.46
293.15 K, m1 = 0.1393	1002.51	1491.8	1.033
293.15 K, m1 = 0.2789	1006.72	1500.8	1.065
293.15 K, m1 = 0.4194	1010.86	1509.7	1.099
293.15 K, m1 = 0.5603	1014.91	1518.5	1.134
293.15 K, m1 = 0.7021	1018.9	1527.2	1.174
293.15 K, m1 = 0.8451	1022.82	1535.9	1.216
293.15 K, m1 = 0.9881	1026.64	1544.4	1.259
293.15 K, m1 = 1.132	1030.4	1552.7	1.307
298.15 K, m1 = 0.1393	1001.3	1505.5	0.9201
298.15 K, m1 = 0.2789	1005.48	1514.3	0.9466
298.15 K, m1 = 0.4194	1009.59	1522.9	0.9744
298.15 K, m1 = 0.5603	1013.63	1531.4	0.9995
298.15 K, m1 = 0.7021	1017.6	1539.9	1.034
298.15 K, m1 = 0.8451	1021.51	1548.2	1.062
298.15 K, m1 = 0.9881	1025.34	1556.4	1.1
298.15 K, m1 = 1.132	1029.1	1564.5	1.146
303.15 K, m1 = 0.1393	999.877	1517.7	0.824
303.15 K, m1 = 0.2789	1004.02	1526.1	0.8427
303.15 K, m1 = 0.4194	1008.09	1534.5	0.8667
303.15 K, m1 = 0.5603	1012.08	1542.8	0.8942
303.15 K, m1 = 0.7021	1016	1550.9	0.9256
303.15 K, m1 = 0.8451	1019.86	1559	0.959
303.15 K, m1 = 0.9881	1023.63	1566.9	1.001
303.15 K, m1 = 1.132	1027.33	1574.7	1.042
308.15 K, m1 = 0.1393	998.23	1527.9	0.733
308.15 K, m1 = 0.2789	1002.34	1536	0.7526
308.15 K, m1 = 0.4194	1006.39	1544	0.7692
308.15 K, m1 = 0.5603	1010.35	1551.9	0.7923
308.15 K, m1 = 0.7021	1014.25	1559.7	0.8219
308.15 K, m1 = 0.8451	1018.1	1567.4	0.8509
308.15 K, m1 = 0.9881	1021.85	1574.9	0.8756
308.15 K, m1 = 1.132	1025.53	1582.3	0.9126

From the NIST ThermoML archive (doi:10.1021/acs.jced.8b00236)
